Measured values published in US4965280A, “Antifungal carbinols” (E. I. Du Pont de Nemours and Company, priority 1989, dated 1990).
Values after ≈ are worked out from the molar mass of the structure shown. Like-named read-outs stand apart in the source and are kept apart here.

Key:
[1] = system: Candida albicans ATCC 11651; assay: In vivo systemic Candida infection in mice, primary assay; design: species or system Candida albicans; CF-1 female mice; settings: Candida albicans, 150 mg/kg per day, read-out: % Survival
Text: The […] activity of test compounds is based on the percent (%) survival of infected animals receiving test or standard agent compared to that in an infected untreated group (Table 6). The in vivo assays are chronic systemic infections lethal to mice within 7 days post infection, [J. Barnes, et al. Lab Investigation, 49 460-467 (1963), and T. Rogers and E. Balish, Infection and Immunity, 14 33-38 (1976)].
Candida albicans ATCC 11651, from a frozen stock culture (10^9 organisms/ml) maintained at -70°, is diluted in saline to 1×10^7 organisms/ml and 0.2 ml inoculated intravenously (caudal vein) into 20.0 gm CF-1 female mice (Charles River).
Test compounds are routinely solubilized in 0.25% (w/v) methylcellulose (Methocel®) but for those compounds difficult to solubilize 10% (w/v) Emulophor® (EL620 GAF Corp.) is used. The standard antifungal agents, amphotericin B (Fungizone®) in water and ketoconazole (Nizoral®) in Methocel®, are administered at 1.0 mg/kg/day and 150 mg/kg/day, respectively.
In a primary assay, mice (10 per group) are infected with C. albicans, and receive test compounds at 50 or 150 mg/kg/day via the subcutaneous route. Animals are dosed with the test compound at 1 and 6 hour post-infection and then once daily for the next three days. Survival of mice in each group is recorded for 21 days.
Compounds which protect ≥70% of the infected animals for 14 days at a dose 150 mg/kg/day or less are viewed as active.

Venturia inaequalis = assay: Example A apple scab; format: in vivo; settings: read-out: disease control rating, Ex. A
Description: (§1) The test compounds were dissolved in acetone in an amount equal to 6% of the final volume and then suspended at a concentration of 100 or 20 ppm in purified water containing 250 ppm of the surfactant TREM 014 (polyhydric alcohol esters). This suspension was sprayed to the point of run-off on apple seedings.

[2] = system: Cercosporidium personatum; assay: Example B Peanut Late Leafspot; format: in vivo; settings: Nothopassalora personata, read-out: disease control rating, Ex. B
Description: as §1, with “peanut seedlings.” for “apple seedings.”

Botrytis cinerea = assay: Example C bean grey mold; format: in vivo; settings: Botrytis cinerea, 24 h, read-out: disease control rating, Ex. C
Description: as §1, with “broad bean seedlings.” for “apple seedings.”

[3] = system: Erysiphe graminis f. sp. tritici; assay: Example D wheat powdery mildew; format: in vivo; settings: Blumeria graminis, 144 h, read-out: disease control rating, Ex. D
Description: as §1, with “wheat seedlings.” for “apple seedings.”

Pyricularia oryzae = assay: whole plant or invertebrate; format: in vivo; settings: Pyricularia oryzae, 120 h; for pest or weed control at 20 ppm: read-out: disease control rating, Ex. E, 20 PPM; for pest or weed control at 100 ppm: read-out: disease control rating, Ex. E, 100 PPM
Rhizoctonia solani = assay: Example F rice sheath blight; format: in vivo; settings: Rhizoctonia solani, 144 h, read-out: disease control rating, Ex. F
Description: as §1, with “rice seedlings.” for “apple seedings.”

Puccinia recondita = assay: Example G wheat leaf rust; format: in vivo; settings: read-out: disease control rating, Ex. G
Phytophthora infestans = assay: whole plant or invertebrate; format: in vivo; settings: Phytophthora infestans, in Solanum lycopersicum, read-out: disease control rating, Ex. H, 100 PPM
Plasmorpara viticola = assay: Example I grape downy mildew; format: in vivo; settings: read-out: disease control rating, Ex. I
Description: as §1, with “grape seedlings.” for “apple seedings.”

[4] = system: Candida albicans ATCC 11651; assay: In vitro antifungal MIC, microtiter broth dilution; settings: Candida albicans, ATCC11651, 24 h, read-out: MIC values, C. albicans, 30°, 24 hours
[5] = system: Aspergillus fumigatus ATCC 28214; assay: In vitro antifungal MIC, microtiter broth dilution; settings: Aspergillus fumigatus, ATCC28214, 24 h, read-out: MIC values, A. fumigatus, 30°, 24 hours

SMILES	responders at 150 mg/kg ([1]; ATCC11651, 168 h, day 7) [%]	responders at 150 mg/kg ([1]; ATCC11651, 336 h, day 14) [%]	responders at 150 mg/kg ([1]; ATCC11651, 504 h, day 21) [%]	pest or weed control at 20 ppm (Venturia inaequalis) [%]	pest or weed control at 20 ppm [2] [%]	pest or weed control at 20 ppm (Botrytis cinerea) [%]	pest or weed control at 100 ppm (Botrytis cinerea) [%]	pest or weed control at 20 ppm [3] [%]	pest or weed control at 20 ppm (Pyricularia oryzae) [%]	pest or weed control at 100 ppm (Pyricularia oryzae) [%]	pest or weed control at 20 ppm (Rhizoctonia solani) [%]	pest or weed control at 100 ppm (Rhizoctonia solani) [%]	pest or weed control at 20 ppm (Puccinia recondita) [%]	pest or weed control at 100 ppm (Phytophthora infestans) [%]	pest or weed control at 100 ppm (Plasmorpara viticola) [%]	MIC [4] [µg/mL]	MIC [5] [µg/mL]	further results
C=C(c1ccccc1)C(O)(Cn1cncn1)c1ccccc1Cl (stereo not shown) [Example 596]	70	60	40	91	95	35	89	94	0	0	0	0	100	0	25	0.05 (≈ 0.153 µM)	0.4 (≈ 1.23 µM)	
C=C(c1ccccc1Cl)C(O)(Cn1cncn1)c1ccc(Cl)c(Cl)c1 (stereo not shown) [Example 627]	0	0	0	31	70	19	38	81	0	0	0	14	99	0	61	0.03 (≈ 0.076 µM)	25 (≈ 63.3 µM)	
C=C(c1ccc([S+](C)[O-])cc1)C(O)(Cn1cncn1)c1ccc(F)cc1 (stereo not shown) [Example 170]				19	69	32	20	95	0	10	0	0	100	0	0	1.6 (≈ 4.31 µM)	100 (≈ 269 µM)	
OC(Cn1cncn1)(C(=Cc1ccccc1)c1ccccc1)c1ccc(F)cc1 (stereo not shown) [Example 291]				32	26	6	81	83	1	1	0	0	73	24	78	0.2 (≈ 0.519 µM)	100 (≈ 259 µM)	
C=C(CN(C)C)C(O)(Cn1cncn1)c1ccc(F)cc1 (stereo not shown) [Example 454]							0			0		0		0	0	100 (≈ 344 µM)	> 100	pest or weed control at 100 ppm (Venturia inaequalis; 100 PPM): 0%; pest or weed control at 100 ppm ([2]; 100 PPM): 0%; pest or weed control at 100 ppm ([3]; 100 PPM): 22%; pest or weed control at 100 ppm (Puccinia recondita; 100 PPM): 0%
